# Measured values published in patent US9833497B2, “Human originated EGF domain proteins and use of the same” (CHENGDU SOURCEBIO LIMITED-LIABILITY COMPANY, priority 2013, dated 2017).
# Legend:
# Assay type in all cases: cell-based
# Proteus vulgaris = experiment: MIC against Gram-negative bacteria: Proteus vulgaris; conditions: for MIC (μg/mL) P. vulgaris / MIC P. vulgaris: 5×10^5 CFU/mL
# Method in brief: (§1)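 Antibacterial activity of purified human EGF domain proteins: two-fold concentration series, triplicate wells, LB broth, 5×10^5 CFU/mL bacteria, 37° C shaking incubation. The lowest concentration without growth defines the MIC.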
# Klebsiella pneumonia = experiment: MIC against Gram-negative bacteria: Klebsiella pneumonia; conditions: for MIC (μg/mL) K. pneumonia / MIC K. pneumonia: 5×10^5 CFU/mL
# Method in brief: as §1
# Serratia marcescens = experiment: MIC against Gram-negative bacteria: Serratia marcescens; conditions: for MIC (μg/mL) S. marcescens / MIC S. marcescens: 5×10^5 CFU/mL
# Method in brief: as §1
# Pseudomonas aeruginosa = experiment: MIC against Gram-negative bacteria: Pseudomonas aeruginosa; conditions: for MIC (μg/mL) P. aeruginosa / MIC P. aeruginosa: 5×10^5 CFU/mL
# Method in brief: as §1
# E. coli BL21 = experiment: MIC against Gram-negative bacteria: E. coli BL21; conditions: for MIC (μg/mL) E. coli BL21 / MIC E. coli BL21: 5×10^5 CFU/mL; for MIC (μg/mL) E. coli BL21 / MIC: E. coli BL21
# Method in brief: as §1
# Moraxella catarrhalis = experiment: MIC against Gram-negative bacteria: Moraxella catarrhalis; conditions: for MIC (μg/mL) M. catarrhalis / MIC M. catarrhalis: 5×10^5 CFU/mL
# Method in brief: as §1
# Citrobacter diversus = experiment: MIC against Gram-negative bacteria: Citrobacter diversus; conditions: for MIC (μg/mL) C. diversus / MIC C. diversus: 5×10^5 CFU/mL
# Method in brief: as §1
# Aeromonas hydrophila = experiment: MIC against Gram-negative bacteria: Aeromonas hydrophila; conditions: for MIC (μg/mL) A. hydrophila / MIC A. hydrophila: 5×10^5 CFU/mL
# Method in brief: as §1
# Proteus mirabilis = experiment: MIC against Gram-negative bacteria: Proteus mirabilis; conditions: for MIC (μg/mL) P. mirabilis / MIC P. mirabilis: 5×10^5 CFU/mL
# Method in brief: as §1
# Enterobacter cloacae = experiment: MIC against Gram-negative bacteria: Enterobacter cloacae; conditions: for MIC (μg/mL) E. cloacae / MIC E. cloacae: 5×10^5 CFU/mL
# Method in brief: as §1
# E. coli DH5α = experiment: Antibacterial activity: MIC and growth curve against E. coli DH5α in 96-well plate; conditions: minimal inhibitory concentration against E. coli DH5α; 96-well plate, 5×10^5 CFU/mL, 37° C., judged after 8 h
# Method in brief: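 MIC taken as lowest protein level with no bacterial growth, tracked by A600 every 30 min during 37 °C, 175 rpm culture. Two-fold protein series 50-12.5 μg/mL final, triplicate wells, against 5×10^5 CFU/mL of LB-washed mid-log cells.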
# [1] = P. vulgaris, 10 h cultivation at 37° C.
# [2] = K. pneumonia, 10 h cultivation at 37° C.
# [3] = S. marcescens, 10 h cultivation at 37° C.
# [4] = P. aeruginosa, 10 h cultivation at 37° C.
# [5] = M. catarrhalis, 10 h cultivation at 37° C.
# [6] = C. diversus, 10 h cultivation at 37° C.
# [7] = A. hydrophila, 10 h cultivation at 37° C.
# [8] = P. mirabilis, 10 h cultivation at 37° C.
# [9] = E. cloacae, 10 h cultivation at 37° C.
substance,measurement,setting,value
PRT185 (ELSECDSNPCRNGGSCKDQEDGYHCLCPPGYYGLHCE; listed as Homo sapiens),MIC (μg/mL) P. vulgaris,Proteus vulgaris; [1],12.5 µg/mL
same,MIC (μg/mL) K. pneumonia,Klebsiella pneumonia; [2],25 µg/mL
same,MIC (μg/mL) S. marcescens,Serratia marcescens; [3],50 µg/mL
same,MIC (μg/mL) P. aeruginosa,Pseudomonas aeruginosa; [4],12.5 µg/mL
same,MIC (μg/mL) E. coli BL21,E. coli BL21; 10 h cultivation at 37° C.,25 µg/mL
same,MIC (μg/mL) M. catarrhalis,Moraxella catarrhalis; [5],50 µg/mL
same,MIC (μg/mL) C. diversus,Citrobacter diversus; [6],12.5 µg/mL
same,MIC (μg/mL) A. hydrophila,Aeromonas hydrophila; [7],25 µg/mL
same,MIC (μg/mL) P. mirabilis,Proteus mirabilis; [8],12.5 µg/mL
same,MIC (μg/mL) E. cloacae,Enterobacter cloacae; [9],50 µg/mL
same,MIC,E. coli DH5α,50 µg/mL
PRT699 (DVDECSSGAPPCGPHGHCTNTEGSFRCSCAPGYRAPSGRPGPCA; listed as Homo sapiens),MIC P. vulgaris,"Proteus vulgaris; 96-well plate, 37° C., 10 h",25 µg/mL
same,MIC K. pneumonia,"Klebsiella pneumonia; 96-well plate, 37° C., 10 h",25 µg/mL
same,MIC S. marcescens,"Serratia marcescens; 96-well plate, 37° C., 10 h",50 µg/mL
same,MIC P. aeruginosa,"Pseudomonas aeruginosa; 96-well plate, 37° C., 10 h",12.5 µg/mL
same,MIC E. coli BL21,"E. coli BL21; 96-well plate, 37° C., 10 h",25 µg/mL
same,MIC M. catarrhalis,"Moraxella catarrhalis; 96-well plate, 37° C., 10 h",25 µg/mL
same,MIC C. diversus,"Citrobacter diversus; 96-well plate, 37° C., 10 h",50 µg/mL
same,MIC A. hydrophila,"Aeromonas hydrophila; 96-well plate, 37° C., 10 h",12.5 µg/mL
same,MIC P. mirabilis,"Proteus mirabilis; 96-well plate, 37° C., 10 h",12.5 µg/mL
same,MIC E. cloacae,"Enterobacter cloacae; 96-well plate, 37° C., 10 h",50 µg/mL
same,MIC,E. coli DH5α,50 µg/mL
PRT624 (CRCSPLGAASAQCHENGTCVCRPGFEGYKCDRCHDNFFLTADGTHCQQC; listed as Homo sapiens),MIC P. vulgaris,"Proteus vulgaris; 96-well plate, 37° C., 10 h",12.5 µg/mL
same,MIC K. pneumonia,"Klebsiella pneumonia; 96-well plate, 37° C., 10 h",50 µg/mL
same,MIC S. marcescens,"Serratia marcescens; 96-well plate, 37° C., 10 h",25 µg/mL
same,MIC P. aeruginosa,"Pseudomonas aeruginosa; 96-well plate, 37° C., 10 h",25 µg/mL
same,MIC E. coli BL21,"E. coli BL21; 96-well plate, 37° C., 10 h",100 µg/mL
same,MIC M. catarrhalis,"Moraxella catarrhalis; 96-well plate, 37° C., 10 h",12.5 µg/mL
same,MIC C. diversus,"Citrobacter diversus; 96-well plate, 37° C., 10 h",25 µg/mL
same,MIC A. hydrophila,"Aeromonas hydrophila; 96-well plate, 37° C., 10 h",12.5 µg/mL
same,MIC P. mirabilis,"Proteus mirabilis; 96-well plate, 37° C., 10 h",25 µg/mL
same,MIC E. cloacae,"Enterobacter cloacae; 96-well plate, 37° C., 10 h",25 µg/mL
same,MIC,E. coli DH5α,25 µg/mL
PRT146 (DRDECSFQPGPCSTLVQCFNTQGSFYCGACPTGWQGNGYICE; listed as Homo sapiens),MIC (μg/mL) P. vulgaris,Proteus vulgaris; [1],12.5 µg/mL
same,MIC (μg/mL) K. pneumonia,Klebsiella pneumonia; [2],50 µg/mL
same,MIC (μg/mL) S. marcescens,Serratia marcescens; [3],25 µg/mL
same,MIC (μg/mL) P. aeruginosa,Pseudomonas aeruginosa; [4],12.5 µg/mL
same,MIC (μg/mL) E. coli BL21,E. coli BL21; 10 h cultivation at 37° C.,50 µg/mL
same,MIC (μg/mL) M. catarrhalis,Moraxella catarrhalis; [5],12.5 µg/mL
same,MIC (μg/mL) C. diversus,Citrobacter diversus; [6],25 µg/mL
same,MIC (μg/mL) A. hydrophila,Aeromonas hydrophila; [7],12.5 µg/mL
same,MIC (μg/mL) P. mirabilis,Proteus mirabilis; [8],25 µg/mL
same,MIC (μg/mL) E. cloacae,Enterobacter cloacae; [9],12.5 µg/mL
same,MIC,E. coli DH5α,12.5 µg/mL
PRT932 (QVNECLSNPCIHGNCTGGLSGYKCLCDAGWVGINCE; listed as Homo sapiens),MIC,Proteus vulgaris; [1],12.5 µg/mL
same,MIC,Klebsiella pneumonia; [2],12.5 µg/mL
same,MIC,Serratia marcescens; [3],12.5 µg/mL
same,MIC,Pseudomonas aeruginosa; [4],12.5 µg/mL
same,MIC,E. coli BL21; 10 h cultivation at 37° C.,50 µg/mL
same,MIC,Moraxella catarrhalis; [5],12.5 µg/mL
same,MIC,Citrobacter diversus; [6],25 µg/mL
same,MIC,Aeromonas hydrophila; [7],12.5 µg/mL
same,MIC,Proteus mirabilis; [8],25 µg/mL
same,MIC,Enterobacter cloacae; [9],25 µg/mL
same,MIC,E. coli DH5α,25 µg/mL
PRT58 (PCALGEGPACAHCAPDNSTRCGSCNPGYVLAQGLCR; listed as Homo sapiens),MIC (μg/mL) P. vulgaris,"Proteus vulgaris; Proteus vulgaris, 96-well plate, 37° C., 10 h",25 µg/mL
same,MIC (μg/mL) K. pneumonia,"Klebsiella pneumonia; Klebsiella pneumonia, 96-well plate, 37° C., 10 h",12.5 µg/mL
same,MIC (μg/mL) S. marcescens,"Serratia marcescens; Serratia marcescens, 96-well plate, 37° C., 10 h",50 µg/mL
same,MIC (μg/mL) P. aeruginosa,"Pseudomonas aeruginosa; Pseudomonas aeruginosa, 96-well plate, 37° C., 10 h",12.5 µg/mL
same,MIC (μg/mL) E. coli BL21,"E. coli BL21; 96-well plate, 37° C., 10 h",25 µg/mL
same,MIC (μg/mL) M. catarrhalis,"Moraxella catarrhalis; Moraxella catarrhalis, 96-well plate, 37° C., 10 h",25 µg/mL
same,MIC (μg/mL) C. diversus,"Citrobacter diversus; Citrobacter diversus, 96-well plate, 37° C., 10 h",12.5 µg/mL
same,MIC (μg/mL) A. hydrophila,"Aeromonas hydrophila; Aeromonas hydrophila, 96-well plate, 37° C., 10 h",12.5 µg/mL
same,MIC (μg/mL) P. mirabilis,"Proteus mirabilis; Proteus mirabilis, 96-well plate, 37° C., 10 h",100 µg/mL
same,MIC (μg/mL) E. cloacae,"Enterobacter cloacae; Enterobacter cloacae, 96-well plate, 37° C., 10 h",12.5 µg/mL
same,MIC,E. coli DH5α,12.5 µg/mL
PRT902 (DIDDCRPNPCHNGGSCTDGINTAFCDCLPGFRGTFCE; listed as Homo sapiens),MIC,Proteus vulgaris; [1],25 µg/mL
same,MIC,Klebsiella pneumonia; [2],25 µg/mL
same,MIC,Serratia marcescens; [3],50 µg/mL
same,MIC,Pseudomonas aeruginosa; [4],12.5 µg/mL
same,MIC,E. coli BL21; 10 h cultivation at 37° C.,25 µg/mL
same,MIC,Moraxella catarrhalis; [5],25 µg/mL
same,MIC,Citrobacter diversus; [6],50 µg/mL
same,MIC,Aeromonas hydrophila; [7],12.5 µg/mL
same,MIC,Proteus mirabilis; [8],12.5 µg/mL
same,MIC,Enterobacter cloacae; [9],50 µg/mL
same,MIC,E. coli DH5α,50 µg/mL
